According to patent US7332505B2, “Nitrosated and nitrosylated proton pump inhibitors, compositions and methods of use” (Nitromed, Inc., priority 1999, dated 2008):
Entries after “also recorded” stand apart in the source; their conditions may differ.

System: ethanol/HCl mixture-induced gastric lesions
Assay: ethanol/HCl mixture-induced gastric lesion test in rats
Assay type: in vivo, Male Sprague Dawley rats
Settings: for inhibition of the formation of gastric lesions (gastric lesion score) relative to vehicle alone: 200 μmol/kg by oral gavage 30 min before 60% ethanol in 150 mM HCl intragastrically, lesions scored 60 min later, vehicle 0.5% Methocel, FIG. 1
Procedure: The ethanol/HCl mixture-induced gastric lesion test in rats described by Takeuchi et al, J. Pharmacol. Exp. Ther., 286: 115-121 (1998), was used to evaluate gastric lesion activity. Male Sprague Dawley rats (Charles River Laboratories, Wilmington, Ma.) weighing 230-250 g were used for the experiments. The rats were housed with laboratory chow and water ad libitum prior to the study. The rats were fasted for 24 hours with free access to water and then dosed by oral gavage with vehicle or with the test compounds given at a volume of 0.5 ml/100 g body weight. Thirty minutes after oral dosing all the rats received 1 ml of a solution of 60% ethanol in 150 mM HCl intragastrically. Food was withheld after dosing. Sixty minutes after ethanol/HCl, rats were euthanized by pre-charged CO2. The stomachs were dissected along the greater curvature, washed with a directed stream of 0.9% saline and pinned open on a sylgard based petri dish for examination of the hemorrhagic lesions. Gastric lesion score was expressed in mm and calculated by summing the length of each lesion as described by Al-Ghamdi et al, J. Int. Med. Res., 19:2242 (1991). Results are expressed as the mean ± standard error of the mean. Statistical analysis were conducted using ANOVA test followed by a Student-Newman-Keuls post-hoc test using the Abacus Concepts, Super Anova computer program (Abacus Concepts, Inc., Berkeley, Calif.).

SMILES	inhibition of the formation of gastric lesions (gastric lesion score) relative to vehicle alone	inhibition of the formation of gastric lesions (gastric lesion score) relative to lanzoprazole (200 μmol/kg by oral gavage 30 min before ethanol/HCl, p<0.05, FIG. 1)
Cc1c(OCC(F)(F)F)ccnc1C[S+]([O-])c1nc2ccccc2[nH]1 (stereo not drawn) [Lanzoprazole, 2-(((3-methyl-4-(2,2,2-trifluoro-ethoxy)-2-pyridinyl)methyl)sulfinyl)-1H-benzimidazole, reference compound]	did not significantly inhibit the formation of gastric lesions; also recorded: failed to significantly inhibit the formation of gastric lesions	
Cc1c(CC(F)(F)F)ccnc1C[S+]([O-])c1nc2ccccc2n1COC(=O)CCC(=O)N(Cc1ccccc1)CC(C)(C)SN=O (stereo not drawn) [Example 2, {2-({[3-Methyl-4-(2,2,2-trifluoroethyl)-2-pyridyl]methyl}sulfinyl)benzimidazolyl]-methyl-3-{N-[2-methyl-2-(nitrosothio)-propyl]-N-benzylcarbamoyl}propanoate]	significantly inhibited the formation of gastric lesions	inhibited the formation of gastric lesions
